Experimental data from publication PMC9015526, “Mass Spectrometric Assays Reveal Discrepancies in Inhibition Profiles for the SARS‐CoV‐2 Papain‐Like Protease” (Chemmedchem, 2022).
Where “and” joins values, the source holds several entries; their conditions need not be identical. Equal entries are not always repeated. Where two headings read alike, the source gives them in different places.

Legend:
SARS‐CoV‐2 PL^pro [1] = target: T1, SARS‐CoV‐2 PL^pro (Severe acute respiratory syndrome coronavirus 2, UniProt P0DTD1); settings: read-out: Reported IC50, cited from earlier work
SARS‐CoV‐2 PL^pro [2] = target: T1, SARS‐CoV‐2 PL^pro; experiment: biochemical
SARS‐CoV‐2 PL^pro [3] = target: T1, SARS‐CoV‐2 PL^pro; settings: Fluorescence, cited from earlier work
[4] = 0.2 μM PL^pro, 2.0 μM nsp2/3 peptide 2, 50 mM Tris pH 8.0, n=2, mean±SD, read-out: SPE‐MS IC50

| Molecule | PL^pro inhibition in SPE‐MS assay (in words) (SARS‐CoV‐2 PL^pro [2]) | IC50 (SARS‐CoV‐2 PL^pro [2]; SPE‐MS IC50) | further results |
| --- | --- | --- | --- |
| CN(C)C/C=C/C(=O)Nc1cc2c(Nc3ccc(F)c(Cl)c3)ncnc2cc1O[C@H]1CCOC1 [afatinib] | inactive | > 50 µM | IC50 (SARS‐CoV‐2 PL^pro [1]): 11 to 16 µM |
| Cc1ccc(-n2sc3ccccc3c2=O)cc1 [PBIT, 2‐(para‐tolyl)benzo[d]isothiazol‐3(2H)‐one] | – | ~0.3 µM and 0.3 µM | – |
| CCOC(=O)C[C@H](NC(=O)[C@H](C)NC(=O)[C@@H](NC(=O)OCc1ccccc1)C(C)C)C(=O)COC(=O)c1c(Cl)cccc1Cl [SDZ‐224015] | does not inhibit | – | IC50 (SARS‐CoV‐2 PL^pro [2]; [4]): > 50 µM |
| Cbz‐RLRGG‐Amc | – | – | Km (SARS‐CoV‐2 PL^pro [3]; ref 14): 6.9 ± 1.4 µM; Km (SARS‐CoV‐2 PL^pro [3]; ref 18): 70.9 ± 10.2 µM |
| CC(=O)OC[C@H]1O[C@@H]([S-])[C@H](OC(C)=O)[C@@H](OC(C)=O)[C@@H]1OC(C)=O.CCP(CC)CC.[Au+] [auranofin] | potently inhibit | – | – |
| CC(=O)Nc1ccc(C)c(C(=O)N[C@H](C)c2cccc3ccccc23)c1 [PL^pro inhibitor 6] | – | ~12.5 µM and 12.5 µM | – |
| COc1cc2ncnc(Nc3ccc(F)c(Cl)c3)c2cc1NC(=O)/C=C/CN1CCCCC1 [dacomitinib] | inactive | – | IC50 (SARS‐CoV‐2 PL^pro [1]; FRET‐based assays, ref 8b): 3 to 5 µM; IC50 (SARS‐CoV‐2 PL^pro [2]; [4]): > 50 µM |
| CC(C)(F)C[C@H](N[C@@H](c1ccc(-c2ccc(S(C)(=O)=O)cc2)cc1)C(F)(F)F)C(=O)NC1(C#N)CC1 [MK‐0822, odanacatib] | does not inhibit | – | IC50 (SARS‐CoV‐2 PL^pro [2]; [4]): > 50 µM |
| COCCn1c2c([n+](Cc3cnccn3)c1C)C(=O)c1ccccc1C2=O [YM‐155, sepantronium bromide] | – | > 50 µM | – |
| Cc1cc(O)c2c(=O)c3c(O)cc(O)c4c5c(O)cc(O)c6c(=O)c7c(O)cc(C)c8c1c2c(c34)c(c78)c65 [Hypericin] | did not inhibit | > 50 µM | – |
| C[C@H]1COC2=C1C(=O)C(=O)c1c2ccc2c1CCCC2(C)C [cryptotanshinone] | did not, at least efficiently, inhibit | – | – |
